This series can be described thus: Dissolution rate of orlistat powder raw material. The format is physicochemical. The method, then:
Orlistat is a drug having a melting point as low as 43° C., and is commercially available in a powder form. The dissolution rate of orlistat undergoing no denaturation under good storage conditions is about 60%. […] In addition, when raw materials of orlistat are exposed to high temperature during transport, the powder particles of orlistat rapidly aggregate. Thereafter, the aggregates remain even when being cooled, causing damage to the dissolution of orlistat.

With `CCCCCCCCCCC[C@@H](C[C@@H]1OC(=O)[C@H]1CCCCCC)OC(=O)[C@H](CC(C)C)NC=O` [orlistat], the dissolution rate runs as follows: (orlistat raw material exposed to high temperature during transport, particles aggregated) no more than 40%; (orlistat undergoing no denaturation under good storage conditions) “about 60%”.
